Laboratory results reported in patent US9250231B2, “Method for selecting mevalonate synthesis modulators using cells derived from human pluripotent cells” (Centre d'Etude des Cellules Souches, priority 2010, dated 2016).

Tests used:
[1] = test system: cells derived from human embryonic stem cells SA01; experiment: Growth capacity (maximum number of cells before senescence) of MSC type cells cultivated with or without FGF2 and AA2P; type: cell-based; conditions: versus control FCS20%
Method: (§1) The role of FGF2 and of ascorbic acid 2-phosphate on the growth capacities of the isolated cells according to the method of the invention was analyzed on cells derived from human embryonic stem cells SA01. The cells are cultivated in the presence of 20% fetal calf serum (control condition) and in the presence or in the absence of FGF2 and of ascorbic acid 2-phosphate (AA2P).

SSEA4 = experiment: Flow cytometry of SSEA4 on MSC type cells derived from hES SA01; type: cell-based, human; conditions: added to control FCS20%; FGF2 10 ng/ml, AA2P 1 mM; control 7
Method: as §1
The presence of SSEA4 on cells cultivated under these different conditions were analyzed by flow cytometry by using a specific antibody directed against SSEA4.

[2] = test system: <<MSC>> SA01 cells derived from hES cells (SA01); experiment: Comparative toxicity of statins in 384-well plates, Cell Titer Glow, with and without mevalonate; type: cell-based, human; conditions: for cell viability as percentage of the result without any treatment, With Mevalonate / cell viability as percentage of the result without any treatment, Without Mevalonate: human, 72 h
Method: For this experiment, the differentiated <<MSC>> SA01 cells derived from hES cells (SA01) were tested in 384-well plates by using a distribution robot and cell viability was measured by Cell Titer Glow after 72 hours of cultivation.

[3] = test system: <<MSC>> WT cells derived from hES cells; experiment: Toxicity of simvastatin in 384-well multiwells, Cell Titer Glow; type: cell-based, human; conditions: 72 hours, 20% fetal calf serum, 2,000 cells per well, DMSO 0.2% 987206
Source text: Determination of the number of cells by the ATP amount is therefore possible. This approach allows automated readout of the number of cells. Similar results are obtained by using traces of mitochondrial activity. Differentiated cells of the MSC type, derived from hES cells, <<MSC>> WT, were sown on 384 multiwells gelatinized beforehand by using a distribution robot of the Bravo type, at the concentration of 2,000 cells per well.

[4] = test system: MSC cells derived from hES human cells SA01; experiment: Prestwick bank screening with and without mevalonate, Cell Titer Glow; type: cell-based; conditions: 2.5 μM, 72 h, mevalonate 2 mM, 96 wells, 20% fetal calf serum

Molecule	increase of the amount of accumulated maximum cells [1]	Average fluorescence intensity (SSEA4) (SSEA4)	cell viability as percentage of the result without any treatment, With Mevalonate [2]	cell viability as percentage of the result without any treatment, Without Mevalonate [2]	also measured
O=C1O[C@H]([C@@H](O)CO)C(O)=C1OP(=O)(O)O [AA2P, Ascorbic Acid 2-Phosphate]	less than 6 log factor	7			
CC(C)n1c(/C=C/C(O)CC(O)CC(=O)O)c(-c2ccc(F)cc2)c2ccccc21 (centres unmarked) [Fluvostatin]			104%	32.8%	comparative toxicity of statins [2]: more toxic than simvastatin
CCC(C)(C)C(=O)O[C@H]1C[C@@H](C)C=C2C=C[C@H](C)[C@H](CC[C@@H]3C[C@@H](O)CC(=O)O3)[C@H]21 [Simvastatin]			98.3%	48.7%	amount of cells by Cell Titer Glow, Statin 2 μM [3]: 474583
FGF2: growth factor from the FGF family added to the culture medium	less than 5 log factor	10			
Mevinolin					selected in screening 1 (toxicity of more than 35% in the absence, less than 20% in the presence of mevalonate) [4]: isolated
